# Measurements published in patent US8993624B2, “Method of preventing and treating inflammatory diseases and disorders with abscisic acid” (Virginia Tech Intellectual Properties, Inc., priority 2010, dated 2015).
# Columns and labels:
# [1] = target: T1, ligand-binding domain of PPAR γ (Homo sapiens, UniProt P37231); assay: PPAR γ ligand-binding assay (Polarscreen PPAR Competitor Assay, Green); settings: 0.001-10 μM, 4 hours
# T1 construct: purchased Invitrogen
# T1 sequence (P37231 238-503 limits assumed): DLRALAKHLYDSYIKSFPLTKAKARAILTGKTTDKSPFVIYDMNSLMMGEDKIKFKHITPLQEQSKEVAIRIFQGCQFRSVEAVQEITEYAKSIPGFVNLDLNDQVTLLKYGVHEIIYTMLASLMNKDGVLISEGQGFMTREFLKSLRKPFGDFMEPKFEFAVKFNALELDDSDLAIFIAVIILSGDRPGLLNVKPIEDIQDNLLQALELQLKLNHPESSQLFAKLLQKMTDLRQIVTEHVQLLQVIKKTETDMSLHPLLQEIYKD
# Protocol: After 4 hours the ability of each compound to displace the fluorescent ligand, and therefore reduce the polarization values, was assessed using a fluorescent plate reader with 485 nm excitation and 535 nm emission. Results are a compilation of 4 independent experiments.
# NF-κB [2] = assay: NF-κB activity in spleens of LPS-challenged mice; format: in vivo, mouse; settings: spleen
# Protocol: (§1) NF-κB and NFAT activities—Spleens were diced into smaller pieces in lysis buffer containing dithiothreitol and a protease inhibitor cocktail and then further disrupted using a dounce ground glass homogenizer at 4° C. Nuclear extraction for tissue homogenate and BMM was performed using the Nuclear Extract kit (Active Motif, Carlsbad, Calif.) per the manufacturer's instructions. The extracts were used to perform a Bradford-based assay for quantifying the protein concentrations and stored at −80° C. NF-κB and NFATc1 activities were measured as previously described (13) by using the Trans-AM™ NF-κB p65 and the Trans-AM™ NFATc1 ELISA-based assays (Active Motif), respectively per the manufacturer's instructions.
# Influenza A/Udorn (H3N2) = assay: Post-exposure ABA by gavage, Influenza A/Udorn challenge in mice; format: in vivo, mouse
# NFATc1 = NFATc1 activity in spleens of LPS-challenged mice; format: in vivo, mouse; settings: spleen
# Protocol: as §1
# PPAR γ = target: T2, PPAR γ (Mus musculus, UniProt P37238); settings: racemic mixture, 3T3-L1 preadipocytes; cited from earlier work
# T2 construct: host or cells: 3T3-L1 preadipocytes
# T2 sequence (P37238 1-505): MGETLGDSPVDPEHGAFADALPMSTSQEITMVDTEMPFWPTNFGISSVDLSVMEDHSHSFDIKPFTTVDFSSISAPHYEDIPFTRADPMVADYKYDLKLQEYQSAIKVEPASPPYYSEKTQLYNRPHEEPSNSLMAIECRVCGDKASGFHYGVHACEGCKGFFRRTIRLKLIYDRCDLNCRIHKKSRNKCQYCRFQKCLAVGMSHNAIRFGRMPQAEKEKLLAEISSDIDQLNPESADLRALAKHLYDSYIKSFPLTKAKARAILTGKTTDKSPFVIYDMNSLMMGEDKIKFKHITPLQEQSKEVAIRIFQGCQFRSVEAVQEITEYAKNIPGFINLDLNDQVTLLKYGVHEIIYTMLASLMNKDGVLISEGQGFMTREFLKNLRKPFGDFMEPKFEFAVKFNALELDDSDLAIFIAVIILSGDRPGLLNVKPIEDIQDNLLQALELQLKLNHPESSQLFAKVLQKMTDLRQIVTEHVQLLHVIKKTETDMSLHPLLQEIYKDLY
# RAR = RAR reporter activity (data not shown); format: cell-based
# NF-κB [3] = assay: NF-κB reporter activity assay in RAW macrophages; settings: data not shown
smiles,measurement,setting,value
"CC1=CC(=O)CC(C)(C)C1(O)/C=C/C(C)=C\C(=O)O (racemic) [ABA, abscisic acid]",ability to compete with the tracer for binding to the PPAR γ LBD,[1],not a PPAR γ ligand
same,NF-κB activity,NF-κB [2],did not affect
same,weight loss,Influenza A/Udorn (H3N2); 50 mg/kg,"slightly suppressed weight loss, although the differences were not statistically significant"
same,weight loss and recovery,"Influenza A/Udorn (H3N2); 100 mg/kg oral gavage once daily 10 days, from 4 hours post-infection",suppressed weight loss for both strains and accelerated recovery
same,accumulation of pro-inflammatory tipDC in lung,"Influenza A/Udorn (H3N2); 100 mg/kg, 7 dpi, FACS",lowered the accumulation of pro-inflammatory tipDC
same,expression of MCP-1 in lungs,Influenza A/Udorn (H3N2); 3 and 7 dpi,lowered expression of MCP-1
same,pulmonary angiopoietin like 4 (ANGIOPL4) mRNA expression,Influenza A/Udorn (H3N2); day 7 post-infection,upregulated
same,pulmonary interleukin-10 (IL-10) mRNA expression,Influenza A/Udorn (H3N2); day 7 post-infection,upregulated
same,pulmonary 5-LOX activating protein (FLAP) expression,Influenza A/Udorn (H3N2); day 10 post-infection,upregulation
same,pulmonary 5-lipooxygenase (5-LOX) expression,Influenza A/Udorn (H3N2); day 10 post-infection,upregulation
same,pulmonary LANCL2 expression,Influenza A/Udorn (H3N2); day 10 post-infection,upregulation
same,pulmonary PPAR γ expression,Influenza A/Udorn (H3N2); day 10 post-infection,upregulation
same,epithelial necrosis,"Influenza A/Udorn (H3N2); lung, WT",ameliorated
same,mucosal and submucosal inflammatory cell infiltration,"Influenza A/Udorn (H3N2); lung, WT",ameliorated
same,perivascular cuffing,"Influenza A/Udorn (H3N2); lung, WT",ameliorated
same,terminal airway infiltration,"Influenza A/Udorn (H3N2); lung, WT",ameliorated
same,beneficial effects on lung inflammatory lesions,Influenza A/Udorn (H3N2); mice lacking PPAR γ in myeloid cells (myeloid KO),abrogated
same,LPS-mediated activation of NFATc1,NFATc1,significantly decreased
same,PPAR γ activation,PPAR γ,activates PPAR γ
same,RAR reporter activity,RAR,does not increase
same,NF-κB reporter activity,NF-κB [3],increased
